Experimental data: publication PMC4020900 (International Journal of Nanomedicine, 2014)
In brackets after ≈: the same amount, converted by molar mass.

Key:
Caco-2 cells [1] = test: Cellular uptake of FITC-conjugated drugs and their niosomes by Caco-2 cells; assay type: in vitro ADME, human; conditions: 100 μg/mL, 37°C, 6 hours incubation, n=3
Caco-2 cells [2] = test: SRB cytotoxicity assay; assay type: cell-based; conditions: Homo sapiens, Caco-2, 24 h, read-out: IC50 (SRB assay)
[3] = Stability in pH 7.4 HBSS buffer with ascorbic acid; assay type: physicochemical; conditions: 100 μg/mL, 10 mM ascorbic acid, 37°C, 6 hours
Caco-2 cells [4] = test: Stability and metabolism on incubation with Caco-2 cells; assay type: in vitro ADME, human; conditions: 100 μg/mL, incubated with Caco-2 cells, pH 7.4 HBSS, 10 mM ascorbic acid, 37°C, 6 hours
[5] = stated in the introduction, method and reference not given; cited from earlier work

- Uptake ± SD (Caco-2 cells [1]): 0.90±0.14 μg/mg protein
- Drug present and unchanged [3]: 86.2%
- Decrease of drug (Caco-2 cells [4]): 13.0%
SMILES: O=C(O[C@@H]1Cc2c(O)cc(O)cc2O[C@@H]1c1cc(O)c(O)c(O)c1)c1cc(O)c(O)c(O)c1 [EGCG, (−)-epigallocatechin gallate]
- IC50 (Caco-2 cells [2]): 125 ± 3.3 µg/mL (≈ 272 µM)
- Octanol/buffer partition coefficient P [5]: 0.86±0.03
